# Data published in PMC11134608, “UBR5 forms ligand-dependent complexes on chromatin to regulate nuclear hormone receptor stability” (Molecular cell, 2023).
# Tests used:
# [1] = system: ATRA-induced gene expression in NB4 cells; assay: RNA sequencing of NB4 cells; format: cell-based, human; details: NB4, ATRA 0, 8, 24, 48 h
# Protocol: Cell lines were expanded, treated with ligand, and incubated at 37C. Cells were pelleted by centrifugation for 5 minutes, washed with cold PBS, and RNA was isolated by RNeasy kit (Qiagen) per manufacturer’s instructions. RNA was sent to Novogene for library preparation and sequencing, or prepared for sequencing (NEBNext, New England Biolabs) and sequenced on an Illumina NextSeq 550 sequencer.
# Paired-end reads were aligned to the hg38.p13[81],[82] reference genome with the STAR[83] (v5.2.7b) aligner as part of the RSEM[99] command line tool. Gene transcript abundance was further quantified from aligned fragments using RSEM to generate a gene-by-sample matrix of expected counts. Differential expression was tested, as with the ChIP-seq data, using the DESeq[88],[93]2 and ashr[94] pipeline, this time calculating sample-specific scale factor offset using the method of median-ratio as implemented in the R package EBSeq[100] (v1.36.0). For plotting in heatmaps, genes were selected based on ChIP-seq peak annotation and subset.
# [2] = system: RARA and UBR5 on chromatin in NB4 cells; assay: ChIP-seq of RARA and UBR5 in NB4 cells; format: cell-based, human; details: NB4, ATRA 8 and 24 h vs DMSO
# Protocol: Cell lines were expanded (up to 50 million), treated with ligand, and incubated at 37 °C. Cells were pelleted by centrifugation for 5 minutes, washed twice with cold PBS, and resuspended, in 5 ml of room temperature PBS. 20 μl of 0.5M Disuccinimidyl glutarate (DSG) (ThermoFisher), was added and incubated for 30 minutes at room temperature. Cells were pelleted by centrifugation and resuspended in 8.325 ml of PBS and 8.325 ml of 2% formaldehyde and incubated for 30 minutes at room temperature. Cross-linking was quenched by the addition of 1665 μl of 1 M Tris-HCl pH 8.0 and 832.5 μl of 2.5 M glycine. Cells were pelleted and washed twice with PBS. Cross-linked cells were resuspended in LB1 Buffer (50mM HEPES-KOH, pH7.5, 140mM NaCl, 1mM EDTA, 10% Glycerol, 0.5% NP-40, 0.25% Triton X-100 in distilled water) and rotated for 10 minutes at 4C. Cells were pelleted and resuspended in LB2 (10mM Tris-HCl, pH 8.0, 200mM NaCl, 1mM EDTA, 0.5mM EGTA in distilled water) and rotated for 10 minutes at 4C. Cells were pelleted and resuspended in LB3 (10mM Tris-HCL, pH 8.0, 100mM NaCl, 1mM EDTA, 0.5mM EGTA, 0.1% Na-deoxycholate, 0.5% Na-Lauroylsarcosine, 1% Triton X-100, in distilled water) sonicated (Covaris, E220). […] Fragment length and concentrations were assessed using TapeStation (Agilent) and Qubit (ThermoFisher), and libraries were sequenced on an Illumina NextSeq 550 sequencer. […]
# UBR5-RARA/RXRA [3] = assay: RARE dsDNA incorporation into UBR5-RARA/RXRA complex; format: binding, human
# Protocol: A.Western blot (anti-His)showingin vitroFLAG-UBR5 pulldownofpurified His-tagged RARA/RXRA heterodimer, showing thata fluorescein-labelled 24-merdsDNAcontaining a DR5 Retinoic Acid
# Immediately before preparing samples for SDS-PAGE, fluorescence
# counts were measured at 488 nm to assessdsDNAincorporation. Fluorescence counts were normalized to the –dsDNA, DMSO condition as abaseline.
# UBR5-RARA/RXRA [4] = assay: In vitro FLAG-UBR5 pull-down of His-tagged RARA/RXRA heterodimer; format: binding, human; details: 50 μM ATRA, mutant proteins
# Protocol: The resin was pelleted and excess buffer removed. 60 μL of fresh binding buffer was re-added, followed by addition of 15 pmol (2.5 μL ofa6 μM solution) of purified FLAG-UBR5 protein and incubated on a rotating wheel at 4°C for 60–90 minutes. The resin was pelleted, excess buffer removed, and 150 μL fresh binding buffer (supplemented with 50 μM ligand of interest or DMSO) added, followed by 150 pmol protein (binding partner protein of interest) and incubated for another 60 minutes. The resin was pelleted, excess buffer removed and washed with 400 μL of binding buffer (supplemented with ligand of interest or DMSO), and this process was repeated three times. The resin was pelleted, excess buffer removed and 45 μL of binding buffer supplemented with 1 mg/mL 3xFLAG peptide was added to elute proteins over 30 minutes on a rotating wheel at room temperature. The resin was pelleted, and 40 μL of the supernatant was collected and mixed with 12 μL of 5xSDS gel loading buffer. 6 μL of these samples were applied to SDS-PAGE on a 4–20% gradient gel (Biorad). The gel was transferred to a nitrocellulose membrane using the Trans-Blot Turbo Transfer System (Biorad). Following blocking with 5% skim milk solution in TBST, primary antibodies targeting the NR proteins were added in TBST and incubated overnight at 4 °C. […]
# [5] = system: RARA and RXRA protein levels in NB4 cells; assay: Whole-proteome mass spectrometry of NB4 cells; format: cell-based, human; details: ATRA 24 h, n = 3 per condition
# Protocol: Cells were lysed by addition of lysis buffer (8 M Urea, 50 mM NaCl, 50 mM 4-(2-hydroxyethyl)-1-piperazineethanesulfonic acid (EPPS) pH 8.5, Protease and Phosphatase inhibitors) and homogenization by bead beating (BioSpec) for three repeats of 30 seconds at 2400. Bradford assay was used to determine the final protein concentration in the clarified cell lysate. […] Desalted peptides were dried in a vacuum-centrifuged and reconstituted in 0.1% formic acid for LC-MS analysis.
# Data were collected using a TimsTOF Pro2 (Bruker Daltonics, Bremen, Germany) coupled to a nanoElute LC pump (Bruker Daltonics, Bremen, Germany) via a CaptiveSpray nano-electrospray source.
# The ddaPASEF parameters included: 100% duty cycle using accumulation and ramp times of 50 ms each, 1 TIMS-MS scan and 10 PASEF ramps per acquisition cycle. […] The quadrupole isolation width was set to 2 m/z for m/z <700 and 3 m/z for m/z >800, with the m/z between 700–800 m/z being interpolated linearly. […] To perform diaPASEF, the precursor distribution in the DDA m/z-ion mobility plane was used to design an acquisition scheme for DIA data collection which included two windows in each 50 ms diaPASEF scan. […]
# PML-RARA = system: PML-RARA; design: method as in PMID 10611294, PMID 20378816; details: ATRA targets RARA, ATO targets PML, ref [6],[11]; cited from earlier work
# NB4 cells = assay: NB4 viability (relative cell counts); format: cell-based, human; details: shUBR5 vs shCTRL, n = 4
# Protocol: (D) Western blotting of NB4 cells transduced with shRNAs against luciferase (shCTRL) or UBR5 treated with or without ATRA. (E) Viability by relative cell counts of NB4 cells transduced with control or UBR5 shRNAs (two shRNAs per condition, combined) following treatment with 1 μM ATRA for 24 h. (n = 4, two-sided t test). […] (NS, not significant, *p < 0.05, **p < 0.005, ***p < 0.0005, ****p < 0.00005, error bars represent SEM.)
# All flow cytometry-based assays (degradation and viability assays) were run in triplicate (n=3) unless otherwise specified where n represents a distinct flow cytometric specimen (a well or tube containing ~100,000 cells). P-values were calculated using GraphPad Prism two-sided t-test and are centered around the mean and error bars represent the SEM unless otherwise specified.
# K. NB4 cell viability following
# transduction of shRNAs againstluciferase or UBR5 and ATRA treatment for 3 days.Data from two shRNAs are combined.(n=4, two sided t-test)NS,not significant, *p < 0.05, **p <0.005, ***p<
# PML-RARA-GFP reporter = PML-RARA-GFP reporter degradation; format: cell-based, human; details: equivalent single-residue glutamate substitutions
# Protocol: (§1) Reporter cell lines were seeded in triplicate at a density of 1 million cells/ml in 100 μl per well in a 96 well plate and measured once. Ligand was added by Digital Dispenser (Tecan), and incubated at 37°C for the appropriate time before reading by flow cytometry. Cells were analyzed for GFP vs mCherry expression. GFP expression was normalized to mCherry signal and ligand treatments were compared to DMSO controls.
# UBR5-RARA = assay: In vitro FLAG-UBR5 pull-down of His-tagged RARA; format: binding, human; details: 50 μM ligand, anti-His western, 25 mM HEPES pH 7.4, 125 mM NaCl, 0.05% TWEEN-20
# Protocol: 12 μL of FLAG M2 slurry were equilibrated with binding buffer (25 mM HEPES pH 7.4, 125 mM NaCl, 0.05% TWEEN-20). The resin was pelleted and excess buffer removed. 60 μL of fresh binding buffer was re-added, followed by addition of 15 pmol (2.5 μL ofa6 μM solution) of purified FLAG-UBR5 protein and incubated on a rotating wheel at 4°C for 60–90 minutes. The resin was pelleted, excess buffer removed, and 150 μL fresh binding buffer (supplemented with 50 μM ligand of interest or DMSO) added, followed by 150 pmol protein (binding partner protein of interest) and incubated for another 60 minutes. The resin was pelleted, excess buffer removed and washed with 400 μL of binding buffer (supplemented with ligand of interest or DMSO), and this process was repeated three times. The resin was pelleted, excess buffer removed and 45 μL of binding buffer supplemented with 1 mg/mL 3xFLAG peptide was added to elute proteins over 30 minutes on a rotating wheel at room temperature. The resin was pelleted, and 40 μL of the supernatant was collected and mixed with 12 μL of 5xSDS gel loading buffer. 6 μL of these samples were applied to SDS-PAGE on a 4–20% gradient gel (Biorad). The gel was transferred to a nitrocellulose membrane using the Trans-Blot Turbo Transfer System (Biorad). Following blocking with 5% skim milk solution in TBST, primary antibodies targeting the NR proteins were added in TBST and incubated overnight at 4 °C. The following day, membranes were washed thrice with TBST buffer and incubated for 45 minutes with fluorescent secondary antibody (Invitrogen A11357), followed by three more washes with TBST. Imaging was performed on a Licor Odyssey system, scanned at 800 nm.
# RARA reporter = RARA reporter degradation (GFP/mCherry); format: cell-based, human
# Protocol: as §1
# [6] = system: RARA complexes (NCOR, NCOA, UBR5); assay: RARA-GFP immunoprecipitation (IP-MS and IP-western); format: cell-based, human
# Protocol: To examine the temporal dynamics of this competition in cells, we performed sequential RARA immunoprecipitation/mass spectrometry (IP/MS) in the presence of MG132 at 0, 4, and 16 h following ATRA treatment.
# Reporter cells (up to 100 million) were treated with ligand (ATRA, dexamethasone) and allowed to incubate for different time points. […] Lysates were incubated with GFP-Trap Magnetic Agarose beads (ChromoTek, GTMA-20) overnight at 4°C on a rotator. Beads were magnetically removed and washed three times with Pierce IP Lysis Buffer with ligand added before boiling in 1x NuPAGE LDS Sample Buffer (ThermoFischer, NP0007).
# After the washing step, samples were eluted using Glycine-HCl buffer (0.2 M, pH 2.4) and rebuffered to pH 8.0. The IP eluates were reduced with 10 mM TCEP for 30 min at room temperature, and then alkylated with 15 mM iodoacetamide for 45 min at room temperature in the dark. Alkylation was quenched by the addition of 10 mM DTT. Proteins were isolated by methanol-chloroform precipitation. The protein pellets were dried and then resuspended in 50 μL 200 mM EPPS pH 8.0. The resuspended protein samples were digested with 2 μg LysC overnight at room temperature followed by the addition of 0.5 μg Trypsin for 6 h at 37°C. Protein digests were dried, resuspended in 100 μL 1% formic acid, and desalted using 10-layer C18 stage-tips before being analyzed by LC-MS.
# RARA and PML-RARA = assay: Western blotting of RARA / PML-RARA degradation in NB4 cells; format: cell-based, human
# Protocol: Membranes were blocked for 30 minutes to 1 hour at room temperature in Odyssey Blocking Buffer/PBS (LI-COR Biosciences), and incubated with primary antibodies at 4 °C overnight. Stained membranes were washed three times in Tris-buffered saline with Tween 20 (TBS-T) and incubated for 1 hour at room temperature with secondary IRDye-conjugated antibodies (LI-COR Biosciences). Membranes were washed three times in TBS-T before imaging (Odyssey Imaging System, LI-COR Biosciences).
structure (smiles),measurement,setting,value
"CC1=C(/C=C/C(C)=C/C=C/C(C)=C/C(=O)O)C(C)(C)CCC1 [ATRA, all-trans-retinoic acid]",effect of UBR5 knockdown on ATRA-induced transcription,[1],strongly decreased transcriptional activation
same,RARA ChIP-seq peaks,[2],lost following ATRA treatment
same,UBR5 ChIP-seq binding at RARA loci,[2],binding was strengthened following ATRA treatment
same,DNA incorporation into UBR5-RARA/RXRA complex,UBR5-RARA/RXRA [3],DNA was readily incorporated into a UBR5-RARA/RXRA complex
same,agonist-induced binding of RARA V240E / RXRA V280E to UBR5,UBR5-RARA/RXRA [4],abolished agonist-induced binding to UBR5 in vitro
same,protein levels of RARA and RXRA,[5],significantly and selectively decreased
same,PML-RARA degradation (literature),PML-RARA,PML-RARA is degraded therapeutically
same,ATRA sensitivity upon UBR5 knockdown,NB4 cells,decreased ATRA sensitivity in NB4 cells
same,"degradation of PML-RARA-GFP reporter, cleft mutants",PML-RARA-GFP reporter,blocked ATRA-induced degradation of the PML-RARA-GFP reporter in cells
same,binding of RARA to UBR5,UBR5-RARA,robustly induced binding of RARA to UBR5
same,requirement of UBR5 HECT domain for RARA reporter degradation,"RARA reporter; HEK293, CRISPR-edited UBR5 deficient of HECT domain, n = 3",necessary for ATRA-induced RARA reporter degradation
same,"degradation of RARA reporter, I254 / I258 glutamate mutants","RARA reporter; I254 and I258 mutations, n = 3",significantly reduced ATRA-induced degradation
same,RARA LBD reporter degradation,"RARA reporter; RARA LBD only, ATRA",still mediated ATRA-induced reporter degradation
same,"degradation of RARA reporter, V240 glutamate mutant","RARA reporter; V240 single mutation, n = 3",abolished ATRA-induced degradation
same,RARA-associated NCOA1 and UBR5 by IP-western,"[6]; U937 RARA-GFP, 10 µM ATRA / MG132, 0-24 h","initial NCOA1 binding to RARA after 4 h of ATRA treatment, diminishing NCOA1 binding from 4 to 16 h, and increased binding of UBR5 at 16 and 24 h"
same,RARA-associated UBR5 by IP/MS,"[6]; with MG132, 0, 4, 16 h ATRA",enrichment of UBR5 peptides at 16 h post ATRA treatment
same,"RARA and PML-RARA degradation, proteasome / neddylation dependence",RARA and PML-RARA; 10 µM ATRA with MG132 or MLN4924,"dependent on the proteasome, but not neddylation"
same,effect of UBR5 knockdown on PML-RARA degradation,RARA and PML-RARA; UBR5 shRNA,prevented ATRA-induced degradation of PML-RARA in NB4 cells
same,effect of UBR5 knockdown on RARA degradation,RARA and PML-RARA; UBR5 shRNA vs control shRNA,rescued ATRA-induced RARA degradation
